Earlier results, collected in patent US9255156B2, “Immunogenic synthetic glycoconjugate for the immunotherapy of melanoma” (Azienda Ospedaliero-Universitaria Careggi, priority 2009, dated 2016).

stability under physiological conditions / hydrolytic stability: unstable under physiological conditions
Substance: GM3 lactone [GM3 lactone 2]
